According to ChEMBL document CHEMBL1201862, “PubChem BioAssay data set” (2004):
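Five concentrations, 48 hours, 96-well plates. Abbreviation: GI50, concentration required for 50% inhibition of growth.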 Active and inactive are the calls of the source. Rule as the data show it: active = GI50 up to about 1.1 µM and inactive = higher.

Columns and labels:
Assay in all cases: NCI-60 cell line screen, 48 h
MCF7 = tested on: MCF7
SN12C = tested on: SN12C
NCI-H460 = tested on: NCI-H460
HCT-15 = tested on: HCT-15
KM12 = tested on: KM12
Malme-3M = tested on: Malme-3M
EKVX = tested on: EKVX
LXFL 529 = tested on: LXFL 529
IGROV-1 = tested on: IGROV-1
CCRF-CEM = tested on: CCRF-CEM
CAKI-1 = tested on: CAKI-1
SK-MEL-2 = tested on: SK-MEL-2
A498 = tested on: A498
HL-60 = tested on: HL-60
T47D = tested on: T47D
A549 = tested on: A549
SR = tested on: SR
DU-145 = tested on: DU-145
M19-MEL = tested on: M19-MEL
HCC 2998 = tested on: HCC 2998
UO-31 = tested on: UO-31
BT-549 = tested on: BT-549
MDA-N = tested on: MDA-N
OVCAR-4 = tested on: OVCAR-4
HOP-62 = tested on: HOP-62
DLD-1 = tested on: DLD-1
KM-20L2 = tested on: KM-20L2
NCI-H522 = tested on: NCI-H522
SF-295 = tested on: SF-295
SNB-75 = tested on: SNB-75
SNB-78 = tested on: SNB-78
UACC-257 = tested on: UACC-257
SW-620 = tested on: SW-620
NCI/ADR-RES = tested on: NCI/ADR-RES
UACC-62 = tested on: UACC-62
OVCAR-3 = tested on: OVCAR-3
SF-268 = tested on: SF-268
LOX IMVI = tested on: LOX IMVI
HOP-92 = tested on: HOP-92
RXF 393 = tested on: RXF 393
OVCAR-5 = tested on: OVCAR-5
ACHN = tested on: ACHN
PC-3 = tested on: PC-3
786-0 = tested on: 786-0
SK-MEL-5 = tested on: SK-MEL-5
M14 = tested on: M14
TK-10 = tested on: TK-10
MDA-MB-231 = tested on: MDA-MB-231
NCI-H226 = tested on: NCI-H226
U-251 = tested on: U-251
SK-OV-3 = tested on: SK-OV-3
NCI-H23 = tested on: NCI-H23
HT-29 = tested on: HT-29
SNB-19 = tested on: SNB-19
K562 = tested on: K562
COLO 205 = tested on: COLO 205
SF-539 = tested on: SF-539
HCT-116 = tested on: HCT-116
RPMI-8226 = tested on: RPMI-8226
OVCAR-8 = tested on: OVCAR-8
SK-MEL-28 = tested on: SK-MEL-28
XF498 = tested on: XF498

SMILES: CC1=NN(C(=O)c2ccccc2O)C(=O)/C1=C/c1cccc(O)c1
- GI50 (MCF7): 1600 nM (inactive)
- GI50 (SN12C): 45900 nM (inactive)
- GI50 (NCI-H460): 774 nM (active)
- GI50 (HCT-15): 1460 nM
- GI50 (KM12): 389 nM (active)
- GI50 (Malme-3M): 1940 nM (inactive)
- GI50 (EKVX): 2770 nM (inactive)
- GI50 (LXFL 529): 276 nM (active)
- GI50 (IGROV-1): 198 nM (active)
- GI50 (CCRF-CEM): 2880 nM (inactive)
- GI50 (CAKI-1): > 100000 nM (inactive)
- GI50 (SK-MEL-2): 968 nM (active)
- GI50 (A498): 44.3 nM (active)
- GI50 (HL-60): 2900 nM (inactive)
- GI50 (T47D): 472 nM (active)
- GI50 (A549): 375 nM (active)
- GI50 (SR): 938 nM (active)
- GI50 (DU-145): 536 nM (active)
- GI50 (M19-MEL): 596 nM (active)
- GI50 (HCC 2998): 12600 nM (inactive)
- GI50 (UO-31): 178 nM (active)
- GI50 (BT-549): 392 nM (active)
- GI50 (MDA-N): 603 nM (active)
- GI50 (OVCAR-4): 2270 nM (inactive)
- GI50 (HOP-62): 1180 nM (inactive)
- GI50 (DLD-1): 167 nM (active)
- GI50 (KM-20L2): 25500 nM (inactive)
- GI50 (NCI-H522): 1220 nM (inactive)
- GI50 (SF-295): 671 nM (active)
- GI50 (SNB-75): 258 nM (active)
- GI50 (SNB-78): 276 nM (active)
- GI50 (UACC-257): 1210 nM (inactive)
- GI50 (SW-620): 3490 nM (inactive)
- GI50 (NCI/ADR-RES): 6210 nM (inactive)
- GI50 (UACC-62): 274 nM (active)
- GI50 (OVCAR-3): 824 nM (active)
- GI50 (SF-268): 637 nM (active)
- GI50 (LOX IMVI): 597 nM (active)
- GI50 (HOP-92): 462 nM (active)
- GI50 (RXF 393): 161 nM (active)
- GI50 (OVCAR-5): 5560 nM (inactive)
- GI50 (ACHN): 188 nM (active)
- GI50 (PC-3): 3190 nM (inactive)
- GI50 (786-0): 826 nM (active)
- GI50 (SK-MEL-5): 3200 nM (inactive)
- GI50 (M14): 446 nM (active)
- GI50 (TK-10): 4760 nM (inactive)
- GI50 (MDA-MB-231): 38800 nM (inactive)
- GI50 (NCI-H226): 8510 nM (inactive)
- GI50 (U-251): 277 nM (active)
- GI50 (SK-OV-3): 2430 nM (inactive)
- GI50 (NCI-H23): 405 nM (active)
- GI50 (HT-29): 39200 nM (inactive)
- GI50 (SNB-19): 543 nM (active)
- GI50 (K562): 178 nM (active)
- GI50 (COLO 205): 32800 nM (inactive)
- GI50 (SF-539): 171 nM (active)
- GI50 (HCT-116): 244 nM (active)
- GI50 (RPMI-8226): 731 nM (active)
- GI50 (OVCAR-8): 571 nM (active)
- GI50 (SK-MEL-28): 50600 nM (inactive)
- GI50 (XF498): 783 nM (active)
